The values below come from paper PMC8779995, “Metabolic Soft Spot and Pharmacokinetics: Functionalization of C-3 Position of an Eph–Ephrin Antagonist Featuring a Bile Acid Core as an Effective Strategy to Obtain Oral Bioavailability in Mice” (Pharmaceuticals, 2021).

Molecules are shown by their SMILES. Values after ≈ are worked out from the molar mass of the structure shown. Values joined by “and” are separate entries in the source; they are usually repeats but may differ in a detail not shown here. Equal entries are not always repeated. Where two headings read alike, the source gives them in different places.

Data set [1] in a line: Phase I metabolic stability in mouse liver microsomes (MLM) with NADPH-generating system. It counts as in vitro ADME. The conditions noted are these: for in vitro half-life (t1/2), phase I metabolism / half-life at 1 µM: NADPH-generating system; for half-life at 1 µM: pH 7.4, MLM, read-out: in vitro half-life (t1/2), phase I metabolism. A general note: Liver microsomes are a subcellular fraction often used to study metabolism.

Data set [2] in a line: Phase II glucuronidation stability in MLM (+UDPGA). The conditions noted are these: 1 μM. It counts as in vitro ADME, mouse. The procedure:
Phase I metabolic stability assays on UniPR compounds were carried out in the presence of MLM (final protein concentration: 1 mg/mL) following published procedures. MLM were also employed in phase II glucuronidation assays employing UDPGA as activating co-factor.
(§1) S.1 In vitro phase I liver metabolism in MLM
(§2) In phase I metabolic stability assays, samples were prepared in 100 mM phosphate buffered saline (PBS), pH 7.4, containing a NADPH-generating system (5 mM MgCl2, 10 mM glucose-6-phosphate, 2 mM NADP+, 1.5 U/mL of glucose-6-phosphate dehydrogenase) and 1 mg/mL mouse liver […]
solutions in DMSO were added to start the reaction. Final DMSO percentage in samples was kept at 1%. At fixed time points (t = 0, 15, 30, 45, 60 min), single aliquots of reaction mixture were withdrawn, processed with two vol. of ACN containing 100 nM UniPR126, centrifuged (16000 g, 10 min, 4 °C) and the supernatant was directly injected in the HPLC-ESI-MS/MS system. […]
(§3) Within-run accuracy and precision were checked employing QC samples representative of the whole calibration range (HQC = 800 nmol/l; MQC = 400 nmol/l; LQC = 5 nmol/l) with n = 3 replicates at each QC concentration level. […] The acceptance criteria for accuracy were to get back-calculated concentrations ± 15% of the nominal ones, except for the LLOQ, which had to be ± 20%. The acceptance criteria for precision, expressed as relative standard

A short description of data set [3]: Phase II sulfonation stability in mouse liver S9 fraction (+PAPS). It counts as in vitro ADME. The conditions noted are these: mouse liver S9, 1 μM. As to the method:
(§4) Phase II sulfonation assays were carried out in the presence of HLS9 or MLS9 fractions, as previously reported. The co-factor PAPS was incubated together with MgCl2, DTT, and UniPR compounds. The detailed experimental protocols for in vitro phase I and II metabolic stability assays are reported in Sections S.1–S.3 of the Supplementary Material. […] A 100 µL aliquot of the reaction mixture was extracted at the beginning of the experiment (t = 0) and at t = 180 min and processed as for the metabolic stability samples.
as §1, §2
solutions in DMSO were added to start the reaction. Final DMSO percentage in samples was kept at 1%. […]
as §3

Data set [4] is described as follows: Phase II sulfonation stability in human liver S9 fraction (+PAPS). It counts as in vitro ADME. The conditions noted are these: pH 7.4, human liver S9, 1 μM, read-out: in vitro t1/2, sulfonation. The procedure: as §4
In vitro half-life (t1/2) in MLM and MLS9 fraction was calculated from the slope (k, Equation (1)) of the linear regression model obtained by fitting the log percentage UniPR compound remaining vs. time. in vitro t1/2 = −0.693/k (1) […]
S.1 In vitro phase I liver metabolism in MLM […]
as §3

Data set [5] is described as follows: In vivo pharmacokinetics in mice after single oral dose, plasma levels by HPLC-MS/MS. The conditions noted are these: 30 mg/kg p.o.; for AUC(0-t): non-compartmental analysis. The procedure: Male mice (breed: C57BL/6J) were supplied by Charles River Labs, Milan, Italy. Mice were submitted to 12 h light-dark cycles under standard temperature and humidity conditions, with free access to water and chow. All experimental procedures were carried out following the European Community Council Directive 2010/63/UE, Italian regulations (DL 26/2014), and the ethical committee guidelines for animal research. […] Blood aliquots were withdrawn by tail puncture into heparinized tubes, centrifuged to collect plasma (2000× g, 10 min, 4 °C), and stored at −80 °C until analysis by HPLC-ESI-MS/MS. Details on the employed bioanalytical method and HPLC-ESI-MS/MS analytical conditions are given in Section S.4 of the Supplementary Material.
Microsoft Excel 365 (Microsoft Corp., Redmond, WA, USA) was employed for data analysis. GraphPad Prism v. 6.01 (GraphPad Software Inc., La Jolla, CA, USA) was employed for plotting graphs. The freeware software PCModFit V.6.7 (Add-on for Microsoft Excel) was employed for AUC calculations by non-compartmental analysis (NCA). […]
Calibration standards (CS, concentration range: 1000-2 nmol/L) were prepared by spiking blank […]
= 1%). Specificity of the method was checked comparing HPLC-MS/MS chromatograms of blank […]
Within-run accuracy and precision were checked employing QC samples representative of the whole calibration range (HQC = 800 nmol/l; MQC = 400 nmol/l; LQC = 5 nmol/l) with n = 3 replicates at each QC concentration level. Between-run accuracy and precision were checked employing QC samples at n=3 concentration levels in n = 3 analytical runs over three days. The acceptance criteria for accuracy were to get back-calculated concentrations ± 15% of the nominal ones, except for the LLOQ, which had to be ± 20%. The acceptance criteria for precision, expressed as relative standard

The conditions of data set [6]: mice, cited from earlier work.
The conditions of data set [7]: n-octanol/buffer pH 7.4, cited from earlier work.
For data set [8] the following is noted: cited from earlier work.
For data set [9] the following is noted: 24 h incubation at 37 °C; cited from earlier work.
For data set [10] the following is noted: cited from earlier work. This is another data set of the same source.
In another data set the target is EphA2-Fc (Mus musculus, UniProt Q03145). Nature of the data set: Surface plasmon resonance (SPR) binding to sensorchip-immobilized EphA2-Fc. As to the method: SPR measurements were performed on a BIAcore X100 instrument (GE-Healthcare, Milwaukee, WI, USA), using research-grade CM4 carboxyl-methyl-dextran-coated sensorchips (GE-Healthcare). SPR was exploited to measure changes in refractive index caused by the binding of UniPR500 to surface-immobilized EphA2. […] Binding parameters were calculated by the non-linear curve fitting software package BIA evaluation 3.2 using a single site model with correction for mass transfer. The dissociation constant (Kd) was either derived from the dissociation rate (koff)/association rate (kon) ratio (kinetics) or by steady-state analysis (being fitted with the proper form of Scatchard’s equation for the plot of the bound RU at equilibrium vs. the ligand concentration in solution).
(In general: SPR reads the build-up and loss of mass on a sensor chip optically.)

The nature of data set [11]: Lipophilicity, distribution coefficient n-octanol/buffer pH 7.4. It counts as physicochemical.
On the set-up of data set [12]: method as in PMID 31891876, PMID 32927068. The conditions noted are these: reference substrates; cited from earlier work.
Setting [13] is: male, C57BL/6J, mouse, plasma, po.

EphA2-Fc, sequence (Q03145 26-538): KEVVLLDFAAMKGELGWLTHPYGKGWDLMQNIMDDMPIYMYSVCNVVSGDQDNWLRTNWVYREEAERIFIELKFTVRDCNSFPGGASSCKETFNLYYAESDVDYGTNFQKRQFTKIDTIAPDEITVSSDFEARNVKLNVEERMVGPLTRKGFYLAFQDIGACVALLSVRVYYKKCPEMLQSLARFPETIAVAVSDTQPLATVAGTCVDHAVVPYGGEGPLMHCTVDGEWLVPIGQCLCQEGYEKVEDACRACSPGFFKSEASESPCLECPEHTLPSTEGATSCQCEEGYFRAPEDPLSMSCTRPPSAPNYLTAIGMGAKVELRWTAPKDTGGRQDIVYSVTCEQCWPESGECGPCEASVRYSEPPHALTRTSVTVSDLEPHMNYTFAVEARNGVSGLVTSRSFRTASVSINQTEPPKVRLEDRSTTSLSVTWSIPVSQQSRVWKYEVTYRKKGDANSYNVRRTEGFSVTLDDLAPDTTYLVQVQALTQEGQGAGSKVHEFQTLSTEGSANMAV

On to `C[C@H](CCC(=O)N[C@H](CC(=O)O)Cc1c[nH]c2ccccc12)[C@H]1CC[C@H]2[C@@H]3CC[C@@H]4C[C@H](O)CC[C@]4(C)[C@H]3CC[C@]12C` [UniPR129, N-(3α-hydroxy-5β-cholan-24-oyl)-L-β-homotryptophan], for which the “change in concentration in the absence of the NADPH-generating system” value in data set [1] (MLM control without NADPH-generating system) was “No decrease”. Also, in [1] (MLM, 1 μM), the “in vitro half-life (t1/2), phase I metabolism” value came out at 17 min. Also, in data set [1] (classification bands of ref 19), the “classification of in vitro phase I intrinsic clearance” value is “high clearance compound”. In addition, the half-life at 1 µM amounted to 16.8 min in data set [1] (mouse, liver microsomes, 1 μM) and 61.1 ± 4.3 min in data set [4]. The microsomal CLint at 1 µM in [1] (mouse, liver microsomes, pH 7.4, MLM, 1 μM, estimate from t1/2, read-out: phase I intrinsic clearance (CL'int)) is 41.4 µL/min/mg. Besides, in data set [2], the “percentage of intact compound at t = 60 min, glucuronidation” value was 85.7 ± 2.7%. Moreover, the “percentage remaining at t = 60 min, sulfonation” value in data set [3] worked out at 86.2 ± 5.3%. Besides, the AUC(0-t) in data set [5] (setting [13]) came to 0.0406 µM·h. In data set [6] (30 mg/kg oral dose), the “plasma levels after oral administration” value is “low nanomolar range”. Further, the Tmax in [6] (30 mg/kg p.o.) was 60 min. Further, the Cmax in [6] (30 mg/kg p.o., read-out: Cmax in plasma) is 13.6 ± 1.2 nM. Besides, the “Log Doct,7.4” value is listed as 4.90 ± 0.15 in [7] and 4.90 in [7] (evaluated in a previous paper). Further, the figures for the kinetic solubility in data set [8] (PBS buffer pH 7.4) and in [8] (previously measured) were 18.3 ± 2.4 µg/mL (≈ 31.7 µM) and 18 µg/mL (≈ 31.2 µM), respectively. In addition, the “percentage recovered in mouse plasma” value in data set [9] is listed as 98.3 ± 9.5%. In addition, the “plasma protein binding (%bound)” value in data set [10] is reported as 98%.

Turning to `C[C@H](CCC(=O)N[C@H](CC(=O)O)Cc1c[nH]c2ccccc12)[C@H]1CC[C@H]2[C@@H]3CCC4CC(=NO)CC[C@]4(C)[C@H]3CC[C@]12C` (stereo partly drawn) [UniPR500, N-(3-hydroxyimino-cholan-24-oyl)-L-β-homotryptophan], the “concentration at which saturation binding is reached” value at EphA2-Fc was “around 25 μM”. The “in vitro half-life (t1/2), phase I metabolism” value in [1] (MLM, 1 μM) is 60 min. Moreover, the half-life at 1 µM in data set [1] (mouse, liver microsomes, 1 μM) is 60.4 min. Also, the “percentage of intact compound at t = 60 min, glucuronidation” value in data set [2] was 79.5 ± 2.9%. Also, the “percentage remaining at t = 60 min, sulfonation” value in [3] was determined as 81.0 ± 4.0%. Moreover, the half-life at 1 µM in data set [4] is 58.6 ± 6.1 min. Besides, the “fold increase of AUC (0–6 h) with respect to UniPR129” value in data set [5] stood at 43 fold. Further, in data set [5] (setting [13]), the time of peak concentration (Tmax) is 30 min and the exposure AUC(0-t) was determined as 1.75 µM·h. Besides, the Cmax in [5] (male, C57BL/6J, mouse, plasma, po, mean ± S.E.M., n = 4, read-out: maximal plasma concentration (Cmax)) was 609 ± 102 nM. In addition, the concentration at 1 h in data set [5] (male, C57BL/6J, mouse, plasma, po, mean ± S.E.M., read-out: plasma concentration at 1 h post-dose) was 344 ± 29 nM. The concentration at 6 h in data set [5] (male, C57BL/6J, mouse, plasma, po, mean ± S.E.M., read-out: plasma concentration at 6 h post-dose) was 237 ± 24 nM. Further, in data set [11], the “decrease of Log Doct,7.4 with respect to UniPR129” value is “approximately 0.7 log unit”. Also, in data set [7] (evaluated in a previous paper), the “Log Doct,7.4” value was 4.23 ± 0.11 and 4.23. Further, the kinetic solubility in [8] (previously measured) was 30.6 ± 2.6 µg/mL and 30 µg/mL.

Turning to `O=C(O)Cc1ccccc1Nc1c(Cl)cccc1Cl` [diclofenac], the “t1/2 of known phase I CYP substrates” value in data set [12] is around 6 min.

Usually AUC(0-t) stands for exposure summed from dosing to a finite time, without extrapolation to infinity. As a reminder, the Tmax is the time from dosing to the highest level.
